# Patent publication US9234017B2, “Aquaporin-4 peptide compositions and methods of use thereof” (The Regents of the University of California, priority 2012, dated 2016)
# Like-named read-outs stand apart in the source and are kept apart here.
# How the values were obtained:
# Assay type in all cases: cell-based, human
# [1] = tested on: peripheral blood mononuclear cells (PBMC); assay: PBMC proliferation by [3H]thymidine incorporation, primary cultures; conditions: for proliferative responses of NMO patients to individual AQP4 peptides: peptides 10 μg/ml, 6 d, [3H]thymidine, FIG. 1B
# [2] = tested on: AQP4 p61-80-specific T cells; assay: Epitope mapping: recall proliferation of AQP4 p61-80-reactive T cells to truncated peptides; conditions: NMO patients, peptides 10 μg/ml, irradiated autologous APC, [3H]thymidine after 3 d, FIG. 3A, 3B
# [3] = tested on: T cells from NMO patients; assay: T cell proliferation by CFSE dilution (cell division index); conditions: for proliferative T cell response to individual AQP4 peptides: NMO patients, CFSE dilution, peptides 10 μg/ml, 10 d, FIG. 1D
# [4] = tested on: T cells initially stimulated with AQP4 p63-76 or ABC-TP
# [5] = tested on: CD4+CFSElow proliferating T cells; assay: Intracellular IL-17 and IFN-γ staining of proliferating antigen-specific CD4+ T cells; conditions: for frequencies of IL-17+ single- and IL-17+IFN-γ+ double-positive (Th17) cells: NMO patients in comparison to HC, PMA/Ionomycin 5 h, FIG. 4A, B
# Description: (§1) Single-cell suspensions were incubated with human serum to prevent nonspecific antibody binding, then stained with anti-CD3, -CD4, -CD8, -CD25, -MHC Class II, -CD40, -CD80, and -CD86 (eBioscience and BD Bioscience). Intracellular cytokine production by CD4^+ T cells and APC was analyzed by monitoring the expression of IFN-γ, IL-17, IL-6, IL-1β and IL-10 (1:100) (eBioscience). Foxp3 staining was performed according to the manufacturer's protocol (eBioscience). For intracellular cytokine staining, T cells were stimulated with phorbol 12-myristate 13-acetate (PMA, 50 ng/ml) plus ionomycin (500 ng/ml) in the presence of GolgiStop (1 μl/ml) (BD Biosciences). CD14^+ cells were stimulated with LPS (1 μg/ml; Sigma-Aldrich) for 4 or 20 h in the presence of GolgiStop. Cells were analyzed by flow cytometry on a FACS Canto flow cytometer (BD Biosciences).
# FIG. 4A-4D. […] PBMC were stained with CFSE and cultured for 10 d with AQP4 peptides (10 μg/ml) or rhAQP4 (5 μg/ml). (Panel A) CD4^+CFSE^low proliferating T cells were analyzed for IL-17 and IFN-γ production by intracellular staining after stimulation with PMA/Ionomycin for 5 h. (Panel B) Frequencies of IL17^+IFN-γ^−, IL17^+IFN-γ^+ and IL17^−IFN-γ^+ were examined among proliferating p61-80-specific CD4^+ T cells (n=8 NMO and n=5 HC), p156-170-specific CD4^+ T cells (n=6 NMO and n=3 HC) and rhAQP4-specific CD4^+ T cells (n=6 NMO and n=5 HC). Frequencies of IL-17- and IFN-γ-single positive T cells were used to calculate Th17/Th1 ratio. (Panel C) PBMC were examined by FACS for expression of Treg markers including CD4, CD127 and CD25. (Panel D) CFSE-labeled PBMC were cultured for 10 d with AQP4 p61-80 (10 μg/ml) or rhAQP4 (5 μg/ml). Proliferating CD4^+ T cells (CDI>2) were examined by FACS for expression of CD25^high, defined as the top half of CD25^+ cells, and Foxp3 (n=8 NMO p61-80, n=6 HC p61-80, n=7 NMO rhAQP4 and n=5 HC rhAQP4). Box-and-whisker plots include the median, distribution and range. **P<0.01 Mann-Whitney U test.
# [6] = tested on: T cells initially stimulated with rhAQP4; assay: Antigen recall proliferation after initial stimulation with rhAQP4
# [7] = tested on: proliferating CD4+ T cells; assay: Treg (CD25high Foxp3) frequency among proliferating antigen-specific CD4+ T cells; conditions: NMO patients versus HC, FIG. 4D
# Description: as §1
# FIG. 4A-4D. […] PBMC were stained with CFSE and cultured for 10 d with AQP4 peptides (10 μg/ml) or rhAQP4 (5 μg/ml). (Panel A) CD4^+CFSE^low proliferating T cells were analyzed for IL-17 and IFN-γ production by intracellular staining after stimulation with PMA/Ionomycin for 5 h. (Panel B) Frequencies of IL17^+IFN-γ^−, IL17^+IFN-γ^+ and IL17^−IFN-γ^+ were examined among proliferating p61-80-specific CD4^+ T cells (n=8 NMO and n=5 HC), p156-170-specific CD4^+ T cells (n=6 NMO and n=3 HC) and rhAQP4-specific CD4^+ T cells (n=6 NMO and n=5 HC). […]
# [8] = PBMC from 4 NMO patients, primed 10 d at 10 μg/ml, [3H]thymidine after 3 d, FIG. 3E
substance,measurement,setting,value
SMNPARSFGPAVIMGNWENH (synthetic poypeptide) [p211-230],proliferative responses of NMO patients to individual AQP4 peptides,[1],T cell determinants were identified
GTEKPLPVDMVLIS (synthetic poypeptide) [p61-74],proliferation of AQP4 p61-80-specific T cells to truncated peptides,[2],not
"tetanus toxoid: Tetanus toxoid obtained from List Biological Laboratories, Inc. [reference compound]","response to tetanus toxoid, HC compared with NMO patients",[1]; lymphocytes from healthy controls,comparable responses
PVDMVLISLCFGLS (synthetic poypeptide) [p67-80],proliferation of AQP4 p61-80-specific T cells to truncated peptides,[2],less efficiently than p63-80
"p21-40: synthetic overlapping AQP4 20-mer peptide, amino acids 21-40 of human AQP4 (NIMVAFKGVWTQAFWKAVTA; UniProt P55087 21-40, looked up, fragment)",proliferative responses of NMO patients to individual AQP4 peptides,[1],T cell determinants were identified
same,proliferative T cell response to individual AQP4 peptides,[3],T cell responses were observed
GILYLVTPPSVVGGLGVTMV (synthetic poypeptide) [p131-150],proliferative responses of NMO patients to individual AQP4 peptides,[1],T cell determinants were identified
FIILPVSMVLISLV [ABC-TP p204-217],proliferation of T cells from NMO patients,[3],proliferated significantly
same,recall proliferation of AQP4 p63-76-primed T cells,[4],proliferated
GTEKPLPVDMVLISLCFG (synthetic poypeptide) [p61-78],proliferation of AQP4 p61-80-specific T cells to truncated peptides,[2],proliferated
EKPLPVDMVLISLC (listed as Homo sapiens) [p63-76],proliferation of AQP4 p61-80-specific T cells to truncated peptides,[2],nearly as efficiently
same,recall proliferation of ABC-TP p204-217-primed T cells,[4]; [8],vice versa
"p11-30: synthetic overlapping AQP4 20-mer peptide, amino acids 11-30 of human AQP4 (GKCGPLCTRENIMVAFKGVW; UniProt P55087 11-30, looked up, fragment)",proliferative responses of NMO patients to individual AQP4 peptides,[1],not detected
same,proliferative T cell response to individual AQP4 peptides,[3],T cell responses were observed
GTEKPLPVDMVL (synthetic poypeptide) [p61-72],proliferation of AQP4 p61-80-specific T cells to truncated peptides,[2],not
AGHGLLVELIITFQL (synthetic poypeptide) [p156-170],proliferative responses of NMO patients to individual AQP4 peptides,[1],T cell determinants were identified
same,proliferative T cell response to individual AQP4 peptides,[3],T cell responses were observed
same,recall proliferation of ABC-TP p204-217-primed T cells,[4]; [8],not observed
same,recall proliferation of AQP4 p63-76-primed T cells,[4]; [8],not observed
same,frequencies of IL-17+ single- and IL-17+IFN-γ+ double-positive (Th17) cells,[5],No Th17 bias
PLPVDMVLISLCFGLS (synthetic poypeptide) [p65-80],proliferation of AQP4 p61-80-specific T cells to truncated peptides,[2],less efficiently than p63-80
DMVLISLCFGLS (synthetic poypeptide) [p69-80],proliferation of AQP4 p61-80-specific T cells to truncated peptides,[2],less efficiently than p63-80
GTEKPLPVDMVLISLC (synthetic poypeptide) [p61-76],proliferation of AQP4 p61-80-specific T cells to truncated peptides,[2],proliferated
p61-80: peptide of amino acids position 61 to position 80 of human AQP-4 protein sequence (GTEKPLPVDMVLISLCFGLS),proliferative responses of NMO patients to individual AQP4 peptides,[1],T cell determinants were identified
same,proportion of CD4+ T cells that responded,"[3]; NMO patients versus HC, FIG. 1E",higher in NMO patients than HC
same,proliferative T cell response to individual AQP4 peptides,[3],robust proliferative T cell response
same,immunodominance among peptides examined,[6],clearly immunodominant
same,frequencies of IL-17+ single- and IL-17+IFN-γ+ double-positive (Th17) cells,[5],significantly higher frequencies
same,Th17/Th1 ratio,[5]; NMO patients versus HC,elevated
rhAQP4: Full length recombinant human AQP4 (1-323) expressed in Pichia pastoris,frequencies of IL-17+ single- and IL-17+IFN-γ+ double-positive (Th17) cells,[5],not significant
same,frequency of Treg among antigen-specific T cells,[7],significantly reduced frequency
RFKEAFSKAAQQTKGSYMEV (synthetic poypeptide) [p261-280],proliferative responses of NMO patients to individual AQP4 peptides,[1],not detected
same,proliferative T cell response to individual AQP4 peptides,[3],T cell responses were observed
